{
  "source": "paper PMC7865145",
  "about": "“Identification of existing pharmaceuticals and herbal medicines as inhibitors of SARS-CoV-2 infection” (Proceedings of the National Academy of Sciences of the …, 2021)",
  "note": "Structures can show the parent of a compound that is named as a salt.",
  "data": [
    {"system": "SARS-CoV-2 (hCoV-19/Taiwan/4/2020)", "test": "microbe, parasite or virus in culture", "type": "cell-based", "settings": "not given", "values": [
      {"smiles": "CC(=O)N[C@@H](C)C(=O)N[C@H](C(=O)N[C@@H](Cc1ccccc1)[C@@H](O)[C@H](O)[C@H](Cc1ccccc1)NC(=O)[C@@H](NC(=O)[C@H](C)NC(C)=O)C(C)C)C(C)C", "note": "[JJS-0309]", "inhibition against SARS-CoV-2 in the cell-based screen": "did not show any inhibition"}
    ]},
    {"system": "SARS-CoV-2 (hCoV-19/Taiwan/4/2020)", "test": "microbe, parasite or virus in culture", "type": "cell-based", "settings": "Vero E6, concentrations used in the screen (10, 3.3 and 1 μM)", "values": [
      {"smiles": "Cc1cccc(C)c1OCC(=O)N[C@@H](Cc1ccccc1)[C@@H](O)C[C@H](Cc1ccccc1)NC(=O)[C@H](C(C)C)N1CCCNC1=O", "note": "[Lopinavir]", "inhibition against SARS-CoV-2 in the cell-based screen": "none of these showed inhibition"},
      {"smiles": "CC(C)c1nc(CN(C)C(=O)N[C@H](C(=O)N[C@@H](Cc2ccccc2)C[C@H](O)[C@H](Cc2ccccc2)NC(=O)OCc2cncs2)C(C)C)cs1", "note": "[Ritonavir]", "inhibition against SARS-CoV-2 in the cell-based screen": "none of these showed inhibition"},
      {"smiles": "CCC[C@H](NC(=O)[C@@H]1[C@H]2CCC[C@H]2CN1C(=O)[C@@H](NC(=O)[C@@H](NC(=O)c1cnccn1)C1CCCCC1)C(C)(C)C)C(=O)C(=O)NC1CC1", "note": "[Telaprevir]", "inhibition against SARS-CoV-2 in the cell-based screen": "none of these showed inhibition"},
      {"smiles": "Nc1nc(NC2CC2)c2ncn([C@H]3C=C[C@@H](CO)C3)c2n1", "note": "[abacavir sulfate]", "inhibition against SARS-CoV-2 in the cell-based screen": "no active compound was identified"},
      {"smiles": "Nc1nc2c(ncn2COCCO)c(=O)[nH]1", "note": "[acyclovir]", "inhibition against SARS-CoV-2 in the cell-based screen": "no active compound was identified"},
      {"smiles": "CC(C)(C)C(=O)OCOP(=O)(COCCn1cnc2c(N)ncnc21)OCOC(=O)C(C)(C)C", "note": "[adefovir dipivoxyl]", "inhibition against SARS-CoV-2 in the cell-based screen": "no active compound was identified"},
      {"smiles": "CC(C)CN(C[C@@H](O)[C@H](Cc1ccccc1)NC(=O)O[C@H]1CCOC1)S(=O)(=O)c1ccc(N)cc1", "note": "[amprenavir]", "inhibition against SARS-CoV-2 in the cell-based screen": "none of these showed inhibition"},
      {"smiles": "COC(=O)N[C@H](C(=O)N[C@@H](Cc1ccccc1)[C@@H](O)CN(Cc1ccc(-c2ccccn2)cc1)NC(=O)[C@@H](NC(=O)OC)C(C)(C)C)C(C)(C)C", "note": "[atazanavir]", "inhibition against SARS-CoV-2 in the cell-based screen": "none of these showed inhibition"},
      {"smiles": "Nc1ccn(C[C@@H](CO)OCP(=O)(O)O)c(=O)n1", "note": "[cidofovir]", "inhibition against SARS-CoV-2 in the cell-based screen": "no active compound was identified"},
      {"smiles": "COC(=O)N[C@H](C(=O)N1CCC[C@H]1c1nc(-c2ccc(-c3ccc(-c4c[nH]c([C@@H]5CCCN5C(=O)[C@@H](NC(=O)OC)C(C)C)n4)cc3)cc2)c[nH]1)C(C)C", "note": "[daclatasvir]", "inhibition against SARS-CoV-2 in the cell-based screen": "none of these showed inhibition"},
      {"smiles": "CC(C)(C)OC(=O)N[C@H]1CCCCC/C=C\\[C@@H]2C[C@@]2(C(=O)NS(=O)(=O)C2CC2)NC(=O)[C@@H]2C[C@@H](OC(=O)N3Cc4cccc(F)c4C3)CN2C1=O", "note": "[danoprevir]", "inhibition against SARS-CoV-2 in the cell-based screen": "none of these showed inhibition"},
      {"smiles": "CC(C)CN(C[C@@H](O)[C@H](Cc1ccccc1)NC(=O)O[C@H]1CO[C@H]2OCC[C@H]21)S(=O)(=O)c1ccc(N)cc1", "note": "[darunavir]", "inhibition against SARS-CoV-2 in the cell-based screen": "none of these showed inhibition"},
      {"smiles": "CC(C)Nc1cccnc1N1CCN(C(=O)c2cc3cc(NS(C)(=O)=O)ccc3[nH]2)CC1", "note": "[delavirdine]", "inhibition against SARS-CoV-2 in the cell-based screen": "no active compound was identified"},
      {"smiles": "O=C1Nc2ccc(Cl)cc2[C@@](C#CC2CC2)(C(F)(F)F)O1", "note": "[efavirenz]", "inhibition against SARS-CoV-2 in the cell-based screen": "no active compound was identified"}
    ]},
    {"system": "SARS-CoV-2 (hCoV-19/Taiwan/4/2020)", "test": "microbe, parasite or virus in culture", "type": "cell-based", "settings": "Vero E6; tested conc. 100 μM (Fig. S4)", "values": [
      {"smiles": "CN1C[C@H](O)[C@@H](O)[C@H](O)[C@H]1CO", "note": "[N-methyl-1-deoxynojirimycin]", "block of viral infection in the cell-based assay (α-glucosidase inhibitors)": "none was able to efficiently block the viral infection"},
      {"smiles": "C[C@H]1O[C@H](O[C@H]2[C@H](O)[C@@H](O)[C@@H](O[C@H]3[C@H](O)[C@@H](O)C(O)O[C@@H]3CO)O[C@@H]2CO)[C@H](O)[C@@H](O)[C@@H]1N[C@H]1C=C(CO)[C@@H](O)[C@H](O)[C@H]1O", "note": "(stereo partly drawn) [acarbose]", "block of viral infection in the cell-based assay (α-glucosidase inhibitors)": "none was able to efficiently block the viral infection"},
      {"smiles": "CC[C@H](CC[C@@H](C)[C@H]1CC[C@H]2[C@@H]3CC=C4C[C@@H](O[C@@H]5O[C@H](CO)[C@@H](O)[C@H](O)[C@H]5O)CC[C@]4(C)[C@H]3CC[C@]12C)C(C)C", "note": "[daucosterol]", "block of viral infection in the cell-based assay (α-glucosidase inhibitors)": "none was able to efficiently block the viral infection"}
    ]}
  ]
}
